Assay results reported in patent publication US6838477B2, “Lactacystin analogs” (President and Fellows of Harvard College, priority 1995, dated 2005).

What was measured:
[1] = biological target: T1, 20S proteasome trypsin-like activity (Bos taurus, UniProt Q2TBP0); assay: Kinetics of inhibition of 20S proteasome trypsin-like activity (Cbz-GGR-βNA); assay type: biochemical, bovine
T1 construct: from tissue; host or cells: bovine brain
Description: (§1) Experiments involving the proteasome were performed as follows: 20S proteasome (˜5 ng/μl) in 10 mM Tris-HCl, pH 7.5, 1 mM EDTA was incubated at 25° C. in the presence of lactacystin or lactacystin analogs in DMSO or MeOH [not exceeding 5% (v/v)]. Aliquots for fluorescence assay were removed at various times following addition of compound and diluted in 10 mM Tris-HCl, pH 7.5, 1 mM EDTA containing fluorogenic peptide substrates (100 μM final). Suc-LLVY-AMC, Cbz-GGR-βNA and […] (AMC=7-amido-4-methylcoumarin; βNA=β-naphthylamide) were used to assay for the chymotrypsin-like, trypsin-like and peptidylglutamyl-peptide hydrolyzing activities, respectively.
(§2) Fluorescent emission at 460 nm with excitation at 380 nm was measured for AMC-containing substrates, and emission at 410 nm with excitation at 335 nm was measured for βNA-containing substrates. The fluorescence assays were conducted at 25° C., each experiment was performed at least three times, and values represent mean±standard deviation.
(§3) The reversibility of the inhibitory effects was assessed by measuring residual peptidase activity after removal of excess inhibitor by extensive serial dilution/ultrafiltration.

[2] = biological target: 20S proteasome peptidylglutamyl-peptide hydrolyzing activity (Bos taurus, UniProt Q3MHN0)
Description: as §1, §2, §3

α-Chymotrypsin = α-Chymotrypsin (Bos taurus, UniProt P00766, DEL14-15/DEL147-148); assay: Selectivity of protease inhibition: α-chymotrypsin; assay type: biochemical; settings: concentration not given
Calpain I = biological target: T2, Calpain I (Homo sapiens, UniProt P07384); assay: Selectivity of protease inhibition: calpain I; assay type: biochemical; settings: concentration not given
T2 sequence (P07384 1-714): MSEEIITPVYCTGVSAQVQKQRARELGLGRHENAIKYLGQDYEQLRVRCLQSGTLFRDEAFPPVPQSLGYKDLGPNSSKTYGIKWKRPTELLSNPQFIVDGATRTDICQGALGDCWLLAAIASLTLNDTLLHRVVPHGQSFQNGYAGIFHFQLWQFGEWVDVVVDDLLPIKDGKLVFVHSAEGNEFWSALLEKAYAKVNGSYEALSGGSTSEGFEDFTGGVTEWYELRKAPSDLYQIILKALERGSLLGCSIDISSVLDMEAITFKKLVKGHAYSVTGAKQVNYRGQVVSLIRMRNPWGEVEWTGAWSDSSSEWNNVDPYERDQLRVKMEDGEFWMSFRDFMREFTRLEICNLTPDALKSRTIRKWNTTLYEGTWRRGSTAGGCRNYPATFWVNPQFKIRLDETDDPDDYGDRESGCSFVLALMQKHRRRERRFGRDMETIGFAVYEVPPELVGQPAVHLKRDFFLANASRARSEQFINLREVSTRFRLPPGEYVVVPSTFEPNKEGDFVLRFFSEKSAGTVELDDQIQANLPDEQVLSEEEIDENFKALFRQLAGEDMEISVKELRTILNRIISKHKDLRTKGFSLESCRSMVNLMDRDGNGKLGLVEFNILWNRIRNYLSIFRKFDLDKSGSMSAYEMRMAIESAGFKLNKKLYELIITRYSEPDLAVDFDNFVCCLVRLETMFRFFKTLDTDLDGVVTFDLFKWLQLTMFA
T2 sequence (P04632 1-268 partner): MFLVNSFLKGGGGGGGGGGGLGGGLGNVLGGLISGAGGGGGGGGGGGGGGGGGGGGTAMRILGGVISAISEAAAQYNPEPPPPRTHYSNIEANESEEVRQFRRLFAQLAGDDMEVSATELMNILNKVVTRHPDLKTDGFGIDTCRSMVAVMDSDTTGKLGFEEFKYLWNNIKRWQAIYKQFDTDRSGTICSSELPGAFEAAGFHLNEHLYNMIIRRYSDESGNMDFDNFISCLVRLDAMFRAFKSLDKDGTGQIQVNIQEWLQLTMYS

Calpain II = biological target: T3, Calpain II (Homo sapiens, UniProt P17655); assay: Selectivity of protease inhibition: calpain II; assay type: biochemical; settings: concentration not given
T3 sequence (P17655 1-700): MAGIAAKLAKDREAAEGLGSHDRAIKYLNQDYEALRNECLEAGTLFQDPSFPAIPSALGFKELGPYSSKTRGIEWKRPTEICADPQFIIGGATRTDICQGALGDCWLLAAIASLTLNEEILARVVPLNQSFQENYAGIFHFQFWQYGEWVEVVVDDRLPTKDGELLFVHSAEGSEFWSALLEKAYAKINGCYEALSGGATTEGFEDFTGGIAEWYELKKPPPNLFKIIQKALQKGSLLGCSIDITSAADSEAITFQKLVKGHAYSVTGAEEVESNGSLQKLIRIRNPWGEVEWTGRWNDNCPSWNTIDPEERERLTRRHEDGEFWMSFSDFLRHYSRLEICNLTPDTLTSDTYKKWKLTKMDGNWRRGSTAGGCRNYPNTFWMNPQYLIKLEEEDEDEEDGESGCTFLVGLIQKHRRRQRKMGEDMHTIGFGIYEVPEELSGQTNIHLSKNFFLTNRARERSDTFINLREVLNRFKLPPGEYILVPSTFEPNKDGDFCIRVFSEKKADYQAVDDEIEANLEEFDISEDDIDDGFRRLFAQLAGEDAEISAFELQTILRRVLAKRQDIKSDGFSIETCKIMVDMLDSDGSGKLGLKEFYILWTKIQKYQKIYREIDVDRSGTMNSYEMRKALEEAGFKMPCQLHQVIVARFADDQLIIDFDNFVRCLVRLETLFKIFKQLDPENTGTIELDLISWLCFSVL
T3 sequence (P04632 1-268 partner): T2 sequence (P04632 1-268 partner)

Cathepsin B = Cathepsin B (Homo sapiens, UniProt P07858); assay: Selectivity of protease inhibition: cathepsin B; assay type: biochemical; settings: concentration not given
p105 to p50 processing = assay: Proteasome dependent p105 to p50 processing in transfected COS cells (pulse-chase); assay type: cell-based, African green monkey; settings: 1 h pretreatment, 2 hour chase
Description: COS cells were plated onto 100 mm dishes, then, with DEAE-Destran, either mock transfected, or transfected with 3 μg of pcDNA plasmid containing the human p105 cDNA. Forty-eight hrs after transfection, cells were pretreated for 1 hour with 0.5% DMSO, 50 μM calpain inhibitor II, 50 μM MG132, or 10 μM β-lactone. Cells were then pulse labelled with 250 uCi/plate of ^35S-methionine/cysteine for 15 minutes, and either harvested immediately or followed by a 2 hour chase with excess unlabelled methionine and cysteine. Cells were then lysed with SDS/Tris, and proteins were immunoprecipitated with anti-p50 antibodies (recognize the N-terminal half of the p105 protein). These proteins were then separated on a 10% SDS-polyacrylamide gel, which was then fixed, dried, and exposed to autoradiographic film.

[3] = residual activity after removal of excess inhibitor by serial dilution/ultrafiltration

## CC(C)[C@H](O)[C@@]12NC(=O)[C@H](C)[C@@H]1OC2=O [β-Lactone, clasto-lactacystin β-lactone]
[1]; compound 5 μM, 25° C.
  κassoc = κobs/[I], Trypsin-like activity (Cbz-GGR-βNA): 208 ± 21 s^−1M^−1
[1]; relative to lactacystin
  trypsin-like activity inhibited faster than by lactacystin: 15-20 times
[1]; [3]
  reversibility of inhibition of trypsin-like activity: irreversibly
[2]; compound 50 μM, 25° C.
  κassoc = κobs/[I], Peptidylglutamyl-peptide hydrolyzing activity (Cbz-LLE-βNA): 59 ± 17 s^−1M^−1
[2]; relative to lactacystin
  PGPH activity inhibited faster than by lactacystin: 15-20 times
[2]; [3]
  reversibility of inhibition of PGPH activity: reversibly
α-Chymotrypsin
  inhibition of α-chymotrypsin activity: do not inhibit
Calpain I
  inhibition of calpain I activity: do not inhibit
Calpain II
  inhibition of calpain II activity: do not inhibit
Cathepsin B
  inhibition of cathepsin activity: do not inhibit
p105 to p50 processing; 10 μM
  processing of p105 to p50 (level of p50): only a slight effect
p105 to p50 processing; 50 μM
  processing of p105 to p50 (appearance of p50): complete inhibition
